According to EP1463487B1, “LIPOSOMAL DELIVERY OF VITAMIN E BASED COMPOUNDS” (RESEARCH DEVELOPMENT FOUNDATION, priority 2001, dated 2003):

Tests used:
66 cl.4-GFP cells [1] = assay: Apoptosis by morphological evaluation of DAPI-stained nuclei; assay type: cell-based, mouse; conditions: for apoptosis: three days
66 cl.4-GFP cells [2] = assay: Colony-forming assay; assay type: cell-based, mouse; conditions: 10 days
Experimental: 66 cl.4-GFP cells were seeded at 600 cells per 35 X 1 0 mm tissue culture plate (Nunclon, Rochester, NY) and allowed to adhere over night at 37° C. […] Treatments were left on the cells for 10 days without change of media. After 10 days, media were removed and plates were washed with PBS three times. Cells were stained for 30 min with 1% methylene blue in PBS and colonies > 0.5 mm manually counted.

MDA-MB-435 GFP FL cells = assay: Tumor growth of MDA-MB-435 GFP FL breast cancer cells in nude mice; assay type: in vivo, Nu/Nu athymic nude mice; conditions: liposome gavage, 8 mg compound per day, 2 times per day; day 27
Experimental: Animals were given a total of 8 mg compound per day. […] Alpha-TEA liposome gavage reduced tumor growth by 68, 75, 78, 79 and 79% on days 27, 29, 31, 33, and 35, respectively (Fig. 15).
Animals were gavaged 3ppm methylselenocysteine (MSC) in water, α-TEA in liposome via aerosol, or gavaged 10 mg/kg b.w. trans-resveratrol (t-RES) in first 1:1, EtOH: physiological saline, and starting at day 24, 6.5% EtOH and 93.5% Neobee oil. A combination group was treated with each of the above three compounds, and a control group was treated with aerosolized liposome, 100 µl water, and 50 µl of the t-Res solvent. Animals were treated seven days a week, for 35+ days.

Cc1c(C)c2c(c(C)c1OCC(=O)O)CC[C@@](C)(CCC[C@H](C)CCC[C@H](C)CCCC(C)C)O2 [α-TEA, 2,5,7,8-tetramethyl-(2R-(4R,8R,12-trimethyltridecyl)chroman-6-yloxy) acetic acid]
apoptosis (66 cl.4-GFP cells [1]; 2.5 µg/ml): 5% | apoptosis (66 cl.4-GFP cells [1]; 5 µg/ml): 6% | apoptosis (time course) (66 cl.4-GFP cells [1]; 10 µg/ml, 2 days): 20% | apoptosis (time course) (66 cl.4-GFP cells [1]; 10 µg/ml, 3 days): 35% | apoptosis (time course) (66 cl.4-GFP cells [1]; 10 µg/ml, 4 days): 47% | apoptosis (time course) (66 cl.4-GFP cells [1]; 10 µg/ml, 5 days): 58% | apoptosis (66 cl.4-GFP cells [1]; 10 µg/ml): 34% | apoptosis (66 cl.4-GFP cells [1]; 20 µg/ml): 50% | colonies (average ± S. D.) (66 cl.4-GFP cells [2]; 1.25 µg/ml): 98 ± 20 colonies | colonies (average ± S. D.) (66 cl.4-GFP cells [2]; 2.5 µg/ml): 21 ± 6 colonies | colonies (66 cl.4-GFP cells [2]; 5 µg/ml): No colonies formed | colonies (66 cl.4-GFP cells [2]; 10 µg/ml): No colonies formed | inhibition at 1.25 µg/mL (66 cl.4-GFP cells [2]; Mus musculus, 240 h, 1.25 µg/ml, compared to EtOH control, read-out: decreased colony formation): 30% | inhibition at 2.5 µg/mL (66 cl.4-GFP cells [2]; Mus musculus, 240 h, 2.5 µg/ml, compared to EtOH control, read-out: decreased colony formation): 85% | inhibition at 5 µg/mL (66 cl.4-GFP cells [2]; Mus musculus, 240 h, 5 µg/ml, compared to EtOH control, read-out: decreased colony formation): 100% | reduced tumor growth (MDA-MB-435 GFP FL cells): 68%
